Source: publication PMC13372822 (The EMBO Journal, 2026)
Positions count from the first letter of the chain named.

Experiments:
[1] = target: T1, SUCR1 mutants (variant named in the endpoint) (Homo sapiens, UniProt Q9BXA5, I157M); test: Calcium mobilization assay, SUCR1 mutants in HEK293 stably expressing Gα16; type: cell-based;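 note: percent of the maximal response to succinate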
T1 construct: The full-length human SUCR1 and mutations were fused after the HA signal peptide and Flag tag; HA signal peptide (N); Flag (N); expressed in transfected cells; host or cells: HEK293 stably expressing Gα16 (pcDNA6.0, transient electroporation)
T1 sequence (Q9BXA5 1-334 I157M): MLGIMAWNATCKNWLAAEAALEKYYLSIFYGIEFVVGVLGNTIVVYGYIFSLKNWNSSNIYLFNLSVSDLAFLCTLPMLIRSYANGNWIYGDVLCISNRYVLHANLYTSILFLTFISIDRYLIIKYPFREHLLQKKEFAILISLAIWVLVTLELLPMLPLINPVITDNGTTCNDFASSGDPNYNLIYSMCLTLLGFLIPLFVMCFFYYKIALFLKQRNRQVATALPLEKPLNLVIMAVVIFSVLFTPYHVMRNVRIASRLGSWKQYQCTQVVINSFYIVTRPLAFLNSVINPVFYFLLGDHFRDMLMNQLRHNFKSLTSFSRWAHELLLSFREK

FFAR3 = target: T2, FFAR3 (Homo sapiens, UniProt O14843); test: Calcium mobilization assay, FFAR3 in HEK293 stably expressing Gα16; type: cell-based; conditions: in words; related receptor
T2 construct: expressed in transfected cells; host or cells: HEK293 stably expressing Gα16
T2 sequence (O14843 1-346): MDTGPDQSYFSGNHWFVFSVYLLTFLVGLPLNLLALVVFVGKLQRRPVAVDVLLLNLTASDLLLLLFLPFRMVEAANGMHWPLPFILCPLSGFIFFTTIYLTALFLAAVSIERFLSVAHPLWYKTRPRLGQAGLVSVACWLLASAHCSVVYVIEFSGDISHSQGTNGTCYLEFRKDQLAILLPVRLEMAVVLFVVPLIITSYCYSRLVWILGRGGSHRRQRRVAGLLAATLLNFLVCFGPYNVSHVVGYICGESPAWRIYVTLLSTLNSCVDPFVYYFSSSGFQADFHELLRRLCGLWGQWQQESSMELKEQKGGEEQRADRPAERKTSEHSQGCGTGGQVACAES
Protocol: (§1) HEK293 cells were obtained from ATCC (Manassas, VA, USA) and cultured in DMEM supplemented with 10% (v/v) FBS, 100 mg/L penicillin, and 100 mg/L streptomycin in 5% CO2 at 37 °C. For transient transfection, ~2.5 × 10^6 cells were mixed with 2 µg plasmids in 200 µL transfection buffer, and electroporation was carried out with a Scientz-2C electroporation apparatus (Scientz Biotech, Ningbo, China). The experiments were carried out 24 h after transfection. HEK293 cell lines stably expressing Gα16 were constructed by our laboratory.
(§2) For OXGR1, plasmids were transfected into HEK293 (other receptors were transfected into HEK293 stably expressing Gα16) and seeded at a density of 4 × 10^4 per well into 96-well culture plates and incubated for 24 h at 37 °C in 5% CO2. The next day, Cells were incubated with 2 μM/L Fluo-4 AM in HBSS supplemented with 5.6 mM/L D-glucose and 250 μM/L sulfinpyrazone at 37 °C for 45 min. […] Three independent measurements were repeated, i.e., three different transfections, with three technical replicates performed for each experiment. EC50 and Emax values for each curve were calculated by Prism 8.0 software (GraphPad Software).

[2] = test system: OXGR1 mutants (variant named in the endpoint); test: Calcium mobilization assay, OXGR1 mutants in HEK293; conditions: for Emax: each ligand normalized to WT (100%);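 for all read-outs here: human OXGR1 variants transiently expressed in HEK293 cells, with intracellular calcium read out by Fluo-4 AM fluorescence, measured 24 h after transfection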
Protocol: The full-length human SUCR1 and mutations were fused after the HA signal peptide and Flag tag. The constructs were cloned into pcDNA6.0 vector for HEK293 system.
as §1, §2

OXGR1 = OXGR1 (Homo sapiens, UniProt Q96P68); test: cAMP assay, Gs pathway (OXGR1-Gs-cAMP-Assay); type: cell-based; set-up: The full-length human OXGR1 and mutations were fused after the HA signal peptide and Flag tag; HA signal peptide (N); Flag (N); expressed in transfected cells; host or cells: HEK293 (pcDNA3.0, transient electroporation); conditions: OXGR1 WT
Protocol: In brief, cells expressing OXGR1 were seeded in a plate at a density of 1 × 10^6 cells/well and cultured overnight. After 24 h culture, cells were harvested and re-suspended in DMEM containing 500 µM IBMX at a density of 2 × 10^5 cells/mL. Then, cells were plated onto 384-well assay plates at a density of 1000 cells/5 µL/well. Another 5 µL buffer containing compounds at various concentrations was added to the cells, and the incubation lasted for 30 min at 37 °C. Intracellular cAMP level was tested by a LANCE Ultra cAMP kit (PerkinElmer, TRF0264) and EnVision multiplate reader according to the manufacturer’s instructions.

[3] = target: T3, SUCR1 mutants (variant named in the endpoint) (Homo sapiens, UniProt Q9BXA5, F285A/L102F); test: Calcium mobilization assay, SUCR1 mutants in HEK293 stably expressing Gα16; type: cell-based; conditions: HEK293;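 note: percent of the maximal response to succinate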
T3 construct: The full-length human SUCR1 and mutations were fused after the HA signal peptide and Flag tag; HA signal peptide (N); Flag (N); expressed in transfected cells; host or cells: HEK293 stably expressing Gα16 (pcDNA6.0, transient electroporation)
T3 sequence (Q9BXA5 1-334 L102F/F285A): T1 sequence (Q9BXA5 1-334 I157M) with L102F, M157I, F285A

## C=C(CC(=O)O)C(=O)O [ITA, itaconate]
[1]; HEK293, SUCR1 I157M, Emax relative to the SUC
  Emax: -0.44 ± 1%
FFAR3
  activation of FFAR3: no detectable activation
[2]; OXGR1 D185A
  EC50: > 1000 µM
  Emax: 4.9± 2 WT%
[2]; OXGR1 E97A
  EC50: > 1000 µM
  Emax: 47± 3 WT%
[2]; OXGR1 F113A
  EC50: > 1000 µM
  Emax: 26± 3 WT%
[2]; OXGR1 F113W
  EC50: 21.3 ± 2 µM
  Emax: 86± 2 WT%
[2]; OXGR1 F113W versus WT
  increase in potency by F113W mutation: ~ 2 fold
[2]; OXGR1 F130D
  EC50: > 1000 µM
  Emax: -5.6± 4 WT%
[2]; OXGR1 F130E
  EC50: > 1000 µM
  Emax: -5.3± 3 WT%
[2]; OXGR1 F250A
  EC50: > 1000 µM
  Emax: 2.2± 3 WT%
[2]; OXGR1 F254A
  EC50: > 1000 µM
  Emax: 0.87± 3 WT%
[2]; OXGR1 F257A
  EC50: 52 ± 10 µM
  Emax: 54± 2 WT%
[2]; OXGR1 F257Y
  EC50: 130 ± 40 µM
  Emax: 120± 10 WT%
[2]; OXGR1 H114A
  EC50: > 1000 µM
  Emax: -4.6± 2 WT%
[2]; OXGR1 H114L
  EC50: > 1000 µM
  Emax: -5.6± 5 WT%
[2]; OXGR1 H258A
  EC50: > 1000 µM
  Emax: 3.0± 6 WT%
[2]; OXGR1 H281A
  EC50: 670 ± 60 µM
  Emax: 74±3 WT%
[2]; OXGR1 I121A
  EC50: > 1000 µM
  Emax: 15± 5 WT%
[2]; OXGR1 I172A
  EC50: > 1000 µM
  Emax: -0.93± 2 WT%
[2]; OXGR1 I285A
  EC50: > 1000 µM
  Emax: 34±5 WT%
[2]; OXGR1 L36A
  EC50: > 1000 µM
  Emax: 6.5± 8 WT%
[2]; OXGR1 L89A
  EC50: > 1000 µM
  Emax: -4.5± 2.0 WT%
[2]; OXGR1 L117A
  EC50: 500 ± 20 µM
  Emax: 63± 4 WT%
[2]; OXGR1 L124A
  EC50: > 1000 µM
  Emax: 36± 3 WT%
[2]; OXGR1 L186A
  EC50: > 1000 µM
  Emax: -4.0± 2 WT%
[2]; OXGR1 L186F
  EC50: 180 ± 50 µM
  Emax: 80± 9 WT%
[2]; OXGR1 L299P
  EC50: > 1000 µM
[2]; OXGR1 L299P, in words
  activation of OXGR1 L299P: abolished
[2]; OXGR1 M168I
  EC50: 510 ± 60 µM
  Emax: 100± 8 WT%
[2]; OXGR1 N28A
  EC50: 120 ± 30 µM
  Emax: 100± 8 WT%
[2]; OXGR1 R110A
  EC50: > 1000 µM
  Emax: 6.5± 2 WT%
[2]; OXGR1 R110E
  EC50: > 1000 µM
  Emax: -2.0± 3 WT%
[2]; OXGR1 R110Q
  EC50: > 1000 µM
  Emax: -2.8± 0.7 WT%
[2]; OXGR1 R177A
  EC50: 320 ± 90 µM
  Emax: 110± 3 WT%
[2]; OXGR1 R261A
  EC50: > 1000 µM
  Emax: 6.7± 2 WT%
[2]; OXGR1 R264A
  EC50: > 1000 µM
  Emax: 24± 3 WT%
[2]; OXGR1 R268A
  EC50: > 1000 µM
  Emax: -4.3± 4 WT%
[2]; OXGR1 R288A
  EC50: > 1000 µM
  Emax: 11±7 WT%
[2]; OXGR1 R288E
  EC50: > 1000 µM
[2]; OXGR1 R288Q
  EC50: > 1000 µM
  Emax: 14±1 WT%
[2]; OXGR1 Y40A
  EC50: > 1000 µM
  Emax: 6.9± 9 WT%
[2]; OXGR1 Y82A
  EC50: > 1000 µM
  Emax: 56± 7 WT%
[2]; OXGR1 Y93A
  EC50: > 1000 µM
  Emax: 3.3± 2 WT%
[2]; OXGR1 Y284A
  EC50: > 1000 µM
  Emax: -9±2 WT%
OXGR1
  activation of Gs signaling: no detectable activation

## O=C(O)CCC(=O)C(=O)O [AKG, α-ketoglutarate]
[3]
  Emax: 5.5 ± 1%
[1]; HEK293
  Emax: 0.43 ± 0.8%
FFAR3
  activation of FFAR3: no cross-reactivity
OXGR1
  activation of Gs signaling: no detectable activation
